Results taken from US10723707B2, “Heterocyclic substituted 2-amino quinazoline derivatives for the treatment of viral infections” (JANSSEN SCIENCES IRELAND UNLIMITED COMPANY, priority 2012, dated 2020).

Tests used:
Assay type in all cases: cell-based
human TLR8 = target: T1, human TLR8 (Homo sapiens, UniProt Q9NR97); assay: TLR8 cellular NFκB-luc reporter assay in transiently transfected HEK293 cells; conditions: lowest effective concentration, 6 hours incubation
T1 construct: expressed in transfected cells; host or cells: HEK293
T1 sequence (Q9NR97 27-1041): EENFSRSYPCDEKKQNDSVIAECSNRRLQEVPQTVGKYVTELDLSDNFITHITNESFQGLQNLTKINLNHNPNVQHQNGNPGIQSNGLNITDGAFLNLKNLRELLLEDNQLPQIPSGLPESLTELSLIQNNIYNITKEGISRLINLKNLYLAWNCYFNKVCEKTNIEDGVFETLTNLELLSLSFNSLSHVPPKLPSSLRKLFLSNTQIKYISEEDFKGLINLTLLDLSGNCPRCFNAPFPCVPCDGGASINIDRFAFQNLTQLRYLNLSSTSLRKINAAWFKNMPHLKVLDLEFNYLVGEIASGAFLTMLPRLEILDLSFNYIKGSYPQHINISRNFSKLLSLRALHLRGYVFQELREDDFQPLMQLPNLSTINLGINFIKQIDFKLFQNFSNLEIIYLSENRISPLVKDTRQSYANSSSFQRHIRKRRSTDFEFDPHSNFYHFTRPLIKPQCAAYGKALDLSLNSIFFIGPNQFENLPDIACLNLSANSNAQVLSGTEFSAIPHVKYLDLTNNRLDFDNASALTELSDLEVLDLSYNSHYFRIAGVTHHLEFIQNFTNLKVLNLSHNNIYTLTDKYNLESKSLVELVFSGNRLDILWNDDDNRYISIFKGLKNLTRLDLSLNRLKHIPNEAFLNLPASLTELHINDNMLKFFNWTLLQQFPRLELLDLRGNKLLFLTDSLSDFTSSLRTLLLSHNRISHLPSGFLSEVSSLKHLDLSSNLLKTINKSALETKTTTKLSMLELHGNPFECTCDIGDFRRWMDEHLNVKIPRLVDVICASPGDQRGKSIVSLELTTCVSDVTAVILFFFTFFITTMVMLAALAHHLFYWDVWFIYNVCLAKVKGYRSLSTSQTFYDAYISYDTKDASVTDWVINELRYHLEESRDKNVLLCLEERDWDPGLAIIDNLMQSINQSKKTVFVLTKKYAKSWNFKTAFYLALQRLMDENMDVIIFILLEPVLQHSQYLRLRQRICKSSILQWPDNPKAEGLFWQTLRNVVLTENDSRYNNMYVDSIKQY
Method: (§1) The ability of compounds to activate human TLR7 and/or TLR8 was assessed in a cellular reporter assay using HEK293 cells transiently transfected with a TLR7 or TLR8 expression vector and NFκB-luc reporter construct.
(§2) Briefly, HEK293 cells were grown in culture medium (DMEM supplemented with 10% FCS and 2 mM Glutamine). For transfection of cells in 15 cm dishes, cells were detached with Trypsin-EDTA, transfected with a mix of CMV-TLR7 or TLR8 plasmid (1700 ng), NFκB-luc plasmid (850 ng) and a transfection reagent and incubated for 48 h at 37° C. in a humidified 5% CO2 atmosphere. Transfected cells were then washed in PBS, detached with Trypsin-EDTA and resuspended in medium to a density of 1.25×10^5 cells/mL. Forty microliters of cells were then dispensed into each well in 384-well plates, where 200 nL of compound in 100% DMSO was already present. Following 6 hours incubation at 37° C., 5% CO2, the luciferase activity was determined by adding 15 μL of Steady Lite Plus substrate (Perkin Elmer) to each well and readout performed on a ViewLux ultraHTS microplate imager (Perkin Elmer). Dose response curves were generated from measurements performed in quadruplicates. Lowest effective concentrations (LEC) values, defined as the concentration that induces an effect which is at least two fold above the standard deviation of the assay, were determined for each compound.

[1] = tested on: interferon-stimulated responsive elements (ISRE); assay: Activation of ISRE promoter elements in HEK-ISREluc cells by conditioned media from PBMC; conditions: Homo sapiens, compound concentration applied to PBMCs, supernatant transferred to HEK-ISREluc cells, 24 hours, read-out: HEK-ISRE luc (LEC)
Method: The potential of compounds to induce IFN-I was also evaluated by measuring the activation of interferon-stimulated responsive elements (ISRE) by conditioned media from PBMC. The ISRE element of sequence GAAACTGAAACT (SEQ ID: 1) is highly responsive to the STAT1-STAT2-IRF9 transcription factor, activated upon binding of IFN-I to their receptor IFNAR (Clontech, PT3372-5W). The plasmid pISRE-Luc from Clontech (ref. 631913) contains 5 copies of this ISRE element, followed by the firefly luciferase ORF. A HEK293 cell line stably transfected with pISRE-Luc (HEK-ISREluc) was established to profile the conditioned PBMC cell culture media.
Briefly, PBMCs were prepared from buffy coats of at least two donors using a standard Ficoll centrifugation protocol. Isolated PBMCs were resuspended in RPMI medium supplemented with 10% human AB serum and 2×10^5 cells/well were dispensed into 384-well plates containing compounds (70 μL total volume). After overnight incubation, 10 μL of supernatant was transferred to 384-well plates containing 5×10^3 HEK-ISREluc cells/well in 30 μL (plated the day before). Following 24 hours of incubation, activation of the ISRE elements was measured by assaying luciferase activity using 40 μL/well Steady Lite Plus substrate (Perkin Elmer) and measured with ViewLux ultraHTS microplate imager (Perkin Elmer). The stimulating activity of each compound on the HEK-ISREluc cells was reported as LEC value, defined as the compound concentration applied to the PBMCs resulting in a luciferase activity at least two fold above the standard deviation of the assay. The LEC in turn indicates the degree of ISRE activation on transfer of a defined amount of PBMC culture medium. Recombinant interferon α-2a (Roferon-A) was used as a standard control compound.

human TLR7 = target: T2, human TLR7 (Homo sapiens, UniProt Q9NYK1); assay: TLR7 cellular NFκB-luc reporter assay in transiently transfected HEK293 cells; conditions: lowest effective concentration, 6 hours incubation
T2 construct: expressed in transfected cells; host or cells: HEK293
T2 sequence (Q9NYK1 27-1049): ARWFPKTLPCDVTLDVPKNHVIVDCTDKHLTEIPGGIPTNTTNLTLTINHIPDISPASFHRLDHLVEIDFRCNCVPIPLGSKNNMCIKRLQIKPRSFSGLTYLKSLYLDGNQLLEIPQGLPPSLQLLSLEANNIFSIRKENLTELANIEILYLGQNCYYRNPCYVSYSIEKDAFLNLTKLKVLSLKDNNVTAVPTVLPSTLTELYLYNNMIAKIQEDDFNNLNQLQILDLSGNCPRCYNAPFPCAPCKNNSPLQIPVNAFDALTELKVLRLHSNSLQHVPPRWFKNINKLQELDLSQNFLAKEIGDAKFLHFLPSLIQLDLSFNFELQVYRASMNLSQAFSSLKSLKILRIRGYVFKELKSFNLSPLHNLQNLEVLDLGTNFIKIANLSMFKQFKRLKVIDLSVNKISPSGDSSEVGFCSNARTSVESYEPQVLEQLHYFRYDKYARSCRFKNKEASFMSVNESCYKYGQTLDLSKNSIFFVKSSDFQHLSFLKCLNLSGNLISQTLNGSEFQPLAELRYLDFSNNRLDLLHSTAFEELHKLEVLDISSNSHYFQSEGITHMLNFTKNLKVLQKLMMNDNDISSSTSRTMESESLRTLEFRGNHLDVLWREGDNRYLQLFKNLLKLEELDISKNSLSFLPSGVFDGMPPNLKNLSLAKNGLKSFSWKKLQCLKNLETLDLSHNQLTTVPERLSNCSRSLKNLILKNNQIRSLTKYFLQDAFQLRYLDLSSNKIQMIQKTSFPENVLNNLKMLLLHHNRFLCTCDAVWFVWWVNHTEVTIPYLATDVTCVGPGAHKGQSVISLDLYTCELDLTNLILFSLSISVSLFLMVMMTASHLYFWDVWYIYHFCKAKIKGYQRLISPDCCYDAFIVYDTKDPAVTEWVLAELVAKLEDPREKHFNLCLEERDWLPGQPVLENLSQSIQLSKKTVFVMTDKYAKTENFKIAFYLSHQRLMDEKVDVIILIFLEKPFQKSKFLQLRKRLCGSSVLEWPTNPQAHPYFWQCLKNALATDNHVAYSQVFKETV
Method: as §1, §2

Structure (SMILES)	Human TLR 8 (LEC) (human TLR8) [µM]	minimal effective concentration [1] [µM]	Human TLR 7 (LEC) (human TLR7) [µM]
C[C@@H](Nc1nc(N)nc2ccccc12)c1ccccn1 (single isomer, unassigned) [Compound 1]	>25	0.61	0.72
COc1cccc2nc(N)nc(N[C@H](C)c3ccccn3)c12 (single isomer, unassigned) [Compound 2]	>25	0.49	0.94
COc1cccc2nc(N)nc(N[C@H](c3ccccn3)C(F)(F)F)c12 (single isomer, unassigned) [Compound 3]	>25	0.47	0.76
C[C@@H](Nc1nc(N)nc2cc(F)ccc12)c1ccccn1 (single isomer, unassigned) [Compound 4]	19.8	0.59	0.92
Cc1ccc2c(N[C@H](C)c3ccccn3)nc(N)nc2c1 (single isomer, unassigned) [Compound 5]	14.7	0.11	0.53
COc1ccc2c(N[C@H](C)c3ccccn3)nc(N)nc2c1 (single isomer, unassigned) [Compound 6]	>25	0.64	3.75
C[C@@H](Nc1nc(N)nc2cc(Cl)ccc12)c1ccccn1 (single isomer, unassigned) [Compound 7]	16.4	0.38	0.82
COC(=O)c1ccc2c(N[C@H](C)c3ccccn3)nc(N)nc2c1 (single isomer, unassigned) [Compound 8]		2.11	4.94
C[C@@H](Nc1nc(N)nc2c(F)cccc12)c1ccccn1 (single isomer, unassigned) [Compound 9]	>25	1.68	5.21
COc1cccc2nc(N)nc(N[C@H](C)c3nccs3)c12 (single isomer, unassigned) [Compound 10]	12.3	0.11	0.42
COc1cccc2nc(N)nc(N[C@H](C)c3cnn(C)c3)c12 (single isomer, unassigned) [Compound 16]	9.14	0.55	2.44
C[C@H](Nc1nc(N)nc2cccc(F)c12)c1ccccn1 (single isomer, unassigned) [Compound 18]	24.3	7.83	8.25
COc1cccc2nc(N)nc(N[C@H](C)c3cccc(C)n3)c12 (single isomer, unassigned) [Compound 20]	>25	0.62	1.46
CCn1ncnc1[C@H](C)Nc1nc(N)nc2cccc(OC)c12 (single isomer, unassigned) [Compound 21]	8.85	0.54	6.1
CCc1noc([C@@H](C)Nc2nc(N)nc3cccc(OC)c23)n1 (single isomer, unassigned) [Compound 25]	6.62	0.49	1.95
CCN(CC)C(=O)c1ccc2c(N[C@H](C)c3ccccn3)nc(N)nc2c1 (single isomer, unassigned) [Compound 26]	>25	7.33	2.14
CNC(=O)c1ccc2c(N[C@H](C)c3ccccn3)nc(N)nc2c1 (single isomer, unassigned) [Compound 27]	>25	5.04	8.24
C[C@@H](Nc1nc(N)nc2cc(C(=O)N3CCCC3)ccc12)c1ccccn1 (single isomer, unassigned) [Compound 28]	>25	1.57	2.24
Cc1cc(CNc2nc(N)nc3cccc(F)c23)no1 [Compound 11]	3.09	0.082	0.45
COc1cccc2nc(N)nc(NCc3cc(C)on3)c12 [Compound 12]	1.94	0.036	0.047
Cc1cc(CNc2nc(N)nc3cc(F)ccc23)no1 [Compound 13]	5.22	0.12	0.46
COCCOc1cccc2nc(N)nc(NCc3cc(C)on3)c12 [Compound 29]	8.15		0.082
